Results: PubChem BioAssay AID256 (DTP/NCI, 2004)
Values joined by “and” are separate entries in the source; they are usually repeats but may differ in a detail not shown here. Identical values can stand only once. Toxic doses and inconclusive results are not listed. How the source made its calls: active means survival T/C of 150% or more; inactive means T/C below 125% in these data.

Test system: CD2F1 mice, L1210 leukemia ip, survival T/C
Test: NCI In Vivo Anticancer Drug Screen. Data for tumor model L1210 Leukemia (intraperitoneal) in CD2F1 (CDF1) mice
Settings: higher = longer survival
Method in brief: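 Transplantable tumor in mice; compound-treated vs vehicle-treated groups. Read-out = treated/control ratio of the measured endpoint.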

[1] = endpoint: mean survival time, dose: 100.0 mg/kg/injection, schedule: Q01DX001 (ip), vehicle: saline
[2] = endpoint: mean survival time, dose: 100.0 mg/kg/injection, schedule: Q01DX009 (ip), vehicle: saline with Tween-80
[3] = endpoint: mean survival time, dose: 200.0 mg/kg/injection, schedule: Q01DX009 (ip), vehicle: saline with Tween-80

Measured: T/C

CN(CCCOS(C)(=O)=O)CCCN(C)CCCOS(C)(=O)=O
inactive: endpoint: mean survival time, dose: 10.0 mg/kg/injection, schedule: Q01DX001 (ip), vehicle: saline 115 % of control | endpoint: mean survival time, dose: 20.0 mg/kg/injection, schedule: Q01DX001 (ip), vehicle: saline 107 % of control | endpoint: mean survival time, dose: 40.0 mg/kg/injection, schedule: Q01DX001 (ip), vehicle: saline 115 % of control | endpoint: mean survival time, dose: 60.0 mg/kg/injection, schedule: Q01DX001 (ip), vehicle: saline 124 % of control | endpoint: mean survival time, dose: 80.0 mg/kg/injection, schedule: Q01DX001 (ip), vehicle: saline 115 % of control | [1] 117 % of control

COC1OC(CO)C(O)C(O)C1O (centres undefined)
inactive: [1] 101 % of control and 105 % of control | endpoint: mean survival time, dose: 100.0 mg/kg/injection, schedule: Q04DX003 (ip), vehicle: saline 97 % of control | endpoint: mean survival time, dose: 200.0 mg/kg/injection, schedule: Q01DX001 (ip), vehicle: saline 108 % of control and 105 % of control | endpoint: mean survival time, dose: 200.0 mg/kg/injection, schedule: Q04DX003 (ip), vehicle: saline 102 % of control | endpoint: mean survival time, dose: 400.0 mg/kg/injection, schedule: Q01DX001 (ip), vehicle: saline 101 % of control and 105 % of control | endpoint: mean survival time, dose: 400.0 mg/kg/injection, schedule: Q04DX003 (ip), vehicle: saline 97 % of control

CCC(C)C(C(=O)OCCN(C)C)c1ccccc1 (centres undefined)
inactive: endpoint: mean survival time, dose: 50.0 mg/kg/injection, schedule: Q01DX009 (ip), vehicle: saline with Tween-80 100 % of control | [2] 97 % of control | [3] 103 % of control

NC(=O)N/N=C\c1ccc(O)cn1
inactive: [2] 93 % of control | [3] 93 % of control | endpoint: mean survival time, dose: 400.0 mg/kg/injection, schedule: Q01DX009 (ip), vehicle: saline with Tween-80 92 % of control

OCC1OC(n2cnc3c2NC=NC[C@H]3O)CC1O (some centres undefined)
inactive: endpoint: mean survival time, dose: 0.13 mg/kg/injection, schedule: Q01DX005 (ip), vehicle: water 93 % of control | endpoint: mean survival time, dose: 0.13 mg/kg/injection, schedule: Q01DX009 (ip), vehicle: water 95 % of control | endpoint: mean survival time, dose: 0.2 mg/kg/injection, schedule: Q03HX024 (ip), vehicle: saline with Tween-80 102 % of control | endpoint: mean survival time, dose: 0.25 mg/kg/injection, schedule: Q01DX005 (ip), vehicle: water 108 % of control | endpoint: mean survival time, dose: 0.25 mg/kg/injection, schedule: Q01DX009 (ip), vehicle: water 101 % of control | endpoint: mean survival time, dose: 0.25 mg/kg/injection, schedule: Q04DX002 (ip), vehicle: water 94 % of control | endpoint: mean survival time, dose: 0.25 mg/kg/injection, schedule: Q04DX003 (ip), vehicle: water 99 % of control | endpoint: mean survival time, dose: 0.3 mg/kg/injection, schedule: Q03HX024 (ip), vehicle: saline with Tween-80 101 % of control | endpoint: mean survival time, dose: 0.4 mg/kg/injection, schedule: Q03HX024 (ip), vehicle: saline with Tween-80 115 % of control and 103 % of control | endpoint: mean survival time, dose: 0.5 mg/kg/injection, schedule: Q03HX024 (ip), vehicle: saline with Tween-80 116 % of control | endpoint: mean survival time, dose: 0.5 mg/kg/injection, schedule: Q04DX002 (ip), vehicle: water 101 % of control | endpoint: mean survival time, dose: 0.5 mg/kg/injection, schedule: Q04DX003 (ip), vehicle: water 96 % of control | endpoint: mean survival time, dose: 0.6 mg/kg/injection, schedule: Q03HX024 (ip), vehicle: saline with Tween-80 110 % of control | endpoint: mean survival time, dose: 0.75 mg/kg/injection, schedule: Q03HX024 (ip), vehicle: saline with Tween-80 111 % of control | endpoint: median survival time, dose: 0.1 mg/kg/injection, schedule: Q01DX009 (ip), vehicle: saline 101 % of control | endpoint: median survival time, dose: 0.13 mg/kg/injection, schedule: Q01DX009 (ip), vehicle: saline 102 % of control | endpoint: median survival time, dose: 0.21 mg/kg/injection, schedule: Q01DX009 (ip), vehicle: saline 113 % of control | endpoint: median survival time, dose: 0.25 mg/kg/injection, schedule: Q01DX009 (ip), vehicle: saline 104 % of control and 108 % of control | endpoint: median survival time, dose: 0.25 mg/kg/injection, schedule: Q03HX012 (ip), vehicle: saline 112 % of control | endpoint: median survival time, dose: 0.3 mg/kg/injection, schedule: Q01DX009 (ip), vehicle: saline 104 % of control | endpoint: median survival time, dose: 0.5 mg/kg/injection, schedule: Q01DX009 (ip), vehicle: saline 104 % of control and 110 % of control | endpoint: median survival time, dose: 0.5 mg/kg/injection, schedule: Q03HX012 (ip), vehicle: saline 113 % of control | endpoint: median survival time, dose: 1.0 mg/kg/injection, schedule: Q01DX009 (ip), vehicle: saline 108 % of control | endpoint: median survival time, dose: 2.0 mg/kg/injection, schedule: Q01DX009 (ip), vehicle: saline 102 % of control | endpoint: median survival time, dose: 3.0 mg/kg/injection, schedule: Q01DX005 (ip), vehicle: saline 95 % of control | endpoint: median survival time, dose: 3.0 mg/kg/injection, schedule: Q01DX009 (ip), vehicle: saline 109 % of control | endpoint: median survival time, dose: 4.0 mg/kg/injection, schedule: Q01DX005 (ip), vehicle: saline 100 % of control | endpoint: median survival time, dose: 5.0 mg/kg/injection, schedule: Q01DX005 (ip), vehicle: saline 97 % of control | endpoint: median survival time, dose: 6.0 mg/kg/injection, schedule: Q01DX005 (ip), vehicle: saline 97 % of control | endpoint: median survival time, dose: 7.0 mg/kg/injection, schedule: Q01DX005 (ip), vehicle: saline 104 % of control | endpoint: median survival time, dose: 10.0 mg/kg/injection, schedule: Q01DX009 (ip), vehicle: saline 109 % of control
